Measured values published in patent publication US8481691B2, “Method for selectively extracting membrane proteins using calixarenes” (Centre National de la Recherche Scientifique—CNRS, priority 2008, dated 2013).

How the values were obtained:
[1] = molecular target: T1, BmrA (Bacillus subtilis, UniProt O06967); assay: Vanadate-sensitive ATPase activity of BmrA after solubilization; assay type: biochemical; details: for ATPase activity of BmrA with solubilization: increasing detergent concentration; for ATPase activity of BmrA with solubilization / Effect on ATPase activity of BmrA: FIG. 9; for ATPase activity of BmrA after reconstitution in liposomes: after removal of the detergents; for Loss of ATPase activity of BmrA once solubilized: relative to BmrA activity in natural membranes; for Effect on ATPase activity of BmrA: 1 mg/ml
T1 construct: made in house; host or cells: E. coli C41 BL21(DE3), plasmid pET15b-BMRA; isolated membrane fraction
T1 sequence (O06967 whole entry): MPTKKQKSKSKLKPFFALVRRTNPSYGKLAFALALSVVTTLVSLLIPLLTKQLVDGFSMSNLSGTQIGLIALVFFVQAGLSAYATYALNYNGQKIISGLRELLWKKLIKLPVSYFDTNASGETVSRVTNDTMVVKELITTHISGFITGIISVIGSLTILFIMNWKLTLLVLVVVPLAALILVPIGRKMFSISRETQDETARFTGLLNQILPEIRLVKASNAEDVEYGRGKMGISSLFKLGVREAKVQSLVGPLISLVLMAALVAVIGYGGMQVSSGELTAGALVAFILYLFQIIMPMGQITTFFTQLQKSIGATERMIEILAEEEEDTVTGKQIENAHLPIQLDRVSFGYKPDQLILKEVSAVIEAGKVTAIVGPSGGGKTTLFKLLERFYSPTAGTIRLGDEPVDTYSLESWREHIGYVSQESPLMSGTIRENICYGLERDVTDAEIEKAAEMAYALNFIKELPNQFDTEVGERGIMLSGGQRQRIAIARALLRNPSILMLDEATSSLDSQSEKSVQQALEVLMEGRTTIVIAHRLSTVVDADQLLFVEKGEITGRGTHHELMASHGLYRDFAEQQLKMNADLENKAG
Excerpt: The solubilization tests take place as in FIG. 8 and the ATPase activity tests are described in example 11. The vertical dotted lines show the CMC of each compound. The black lozenges correspond to a test in which BmrA is solubilized with p(COOH)3—Ar4-o(C7H15) then reconstituted in lipids after removal of the detergent with biobeads (Bio-Rad) according to the procedure described in Lenoir et al..
The percentage of specific ATPase activity sensitive to vanadate (% SA or % VO4 sensitive Specific ATPase Activity) is evaluated for the following different cases: • BmrA Mb: activity of BmrA in natural membranes, • DDM sup./DDM: activity of BmrA in the DDM extract, • DDM sup./Lip.: activity of BmrA from the DDM extract and reconstituted in liposomes, • FC12 sup./FC12: activity of BmrA in the Foscholine 12 extract, • FC12 sup./Lip.: activity of BmrA from the Foscholine 12 extract and reconstituted in liposomes, • C4C7 sup./[…]: activity of BmrA in the calixarene C4C7 (in other words calix[4]arene-O-heptyloxy) extract, • C4C7 sup./Lip.: activity of BmrA from the calixarene C4C7 extract and reconstituted in liposomes.
FIG. 12 summarizes the results of an extraction successively using the calixarenes C4C3 then C4C7 (FIG. 12A) followed by purification by gel filtration chromatography (FIGS. 12B-E).
The ATPase activity is measured by evaluating the inorganic phosphate content (Pi) after 5 minutes of incubation at 37° C. The fraction of Pi produced by other ATPase activities is deducted by measuring the same activity in the presence of 1 mM of ortho vanadate which inhibits the ATPase activity of BmrA (for example as described in [10]).
The effect of the solubilization by the p(COOH)3—Ar4-o(CnH2n+1) series on the ATPase activity of BmrA was analyzed under the same conditions as in FIG. 8.
The effects of the solubilization on the activity of the BmrA protein were evaluated with various C4Cn calixarenes, in other words the p(COOH)3—Ar4-o(CnH2n+1) calixarenes, but also with the control detergents such as Foscholine 12 (FC12) and β-D-dodecyl maltopyranoside (DDM), then the extracts obtained (supernatant fractions) were dialyzed in the presence of liposomes in order to restore a membrane environment, which enables the recovery of the activity of the protein.

[2] = molecular target: T1, BmrA; assay: Solubilization of BmrA from enriched membrane fractions (centrifugation, SDS PAGE); assay type: biochemical, E. coli membrane fraction; details: for Solubilization of BmrA (found in supernatant): detergent 10 mg/ml (1%), 2 mg proteins/ml, 2 hrs at 4° C., FIG. 7; for Solubilization of BmrA: FIG. 8
Excerpt: The gray and black dotted lines and the black line serve as a scale of the efficacy of the molecules to be solubilized. The “no det” lines signify “without detergent”.
The experimental conditions are those of FIG. 7, with the exception of the concentrations of the butyl, heptyl and dodecyl molecules which are as indicated in the figure, for which the g/L<->M correspondence is indicated in Table 2. The “no det” lines signify “without detergent”.
The competent bacteria C41 BL21(DE3) E. coli (Escherichia coli) were transformed with the plasmid pET15b-BMRA bearing the gene coding for BmrA and placed under the control of an inducible promoter and a gene coding for the protein conferring resistance to ampicillin. A positive clone was cultured in a liquid medium at 37° C. and 200 rpm in the presence of ampicillin until a semi-exponential growth phase. The expression of BmrA is induced by addition of 1 mM of isopropyl thio β-galactoside and continued at 25° C. for 4 hrs. The bacteria were harvested by centrifugation, disrupted in a French press, and the membrane fraction was isolated by a series of centrifugation stages at low and high speeds. The protein content was evaluated by colorimetry and set at 20 mg/ml (20 mM Tris-Cl pH 8.0, […] NaCl, 300 mM sucrose) before freezing and storage in liquid nitrogen. Before use, the membrane fraction is then rapidly thawed in water and maintained at 4° C. in ice.
The solubilization is effected at 4° C.

[3] = Aggregation state / apparent diameter of aggregates; assay type: physicochemical
[4] = Critical Micellar Concentration estimated from surface tension data; assay type: physicochemical
Description: The effect of the molecules having an alkyl chain with 1 to 12 methylene groups (m, x axis in the figure) on the CMC is measured at a concentration of 10^−2 M, at pH 6.0 (solid circles) and 8.0 (open circles). Each point corresponds to the mean of three values, estimated from the data from FIG. 2.
(§1) The surfactant properties of the calixarenes of formula (I) are evaluated in a 1 ml sitting drop by means of a Kibron micro-depression instrument and using a stainless steel syringe and a Wilhelmy balance. The curves obtained are processed with the software Sigmaplot v11.
Critical Micellar Concentration (CMC) is understood to mean the concentration beyond which the concentration of the detergent molecules no longer increases since said molecules are involved in micelles (FIG. 13). […] Conversely, when the alkyl chains include more than 8 methylene groups, the resulting CMC decreases appreciably to 0.15 mM when the pH increases from 6 to 8.

[5] = Surface tension measurement of water (surfactant properties); assay type: physicochemical
Excerpt: The effect of the derivatives of calix[4]arene containing alkyl chains with 1 to 12 carbon atoms on the surface tension of water was followed as a function of the concentration of said derivatives (molar M or mol/L) at pH 6.0 (not exposed) and 8.0 (exposed). The surface-active properties of DDM (β-D-dodecyl malto-pyranoside) are also shown in this figure. Each point corresponds to the mean of three values.
The effect of the molecules containing an alkyl chain having from 1 to 12 methylene groups (n, x axis in FIG. 3) on the surface tension of water was measured at a concentration of 10^−2M, at pH 6.0 (open circles) and at pH 8.0 (squares). Each point corresponds to the mean of three values.
as §1

[6] = Modulation of surfactant potential by amino acids (surface tension); assay type: physicochemical; details: compound 10^−2 M, pH 8.0
Description: The compound p(COOH)3—Ar4-o(C7H15) is present at a concentration of 10^−2 M whereas that of the amino acids vary as indicated. The surface tension is measured at pH 8.0. The amino acids are indicated by their three-letter code: Glu=glutamic acid, Trp=tryptophan, Asn=asparagine, Gly=glycine, Ala=alanine, Ser=serine, Phe=phenylalanine, Leu=leucine, Pro=Proline, Lys=lysine, His=histidine, Arg=arginine. Each point corresponds to the mean of three values.
as §1

## CCCCCCCCCCCCOCCOCCOCCOCCOCCOCCOCCOCCO [C12E8]
[1]
  ATPase activity of BmrA with solubilization: decreases with the solubilization

## CCCCCCCCCCCCO[C@@H]1O[C@H](CO)[C@@H](O[C@H]2O[C@H](CO)[C@@H](O)[C@H](O)[C@H]2O)[C@H](O)[C@H]1O [DDM, n-dodecyl-β-D-maltopyranoside]
[2]
  Solubilization of BmrA (found in supernatant): more pronounced
[1]; FIG. 11
  ATPase activity of BmrA after reconstitution in liposomes: recovered
  Loss of ATPase activity of BmrA once solubilized: 95%

## CCCCCCCCCCCCOP(=O)([O-])OCC[N+](C)(C)C [FC12, n-dodecylphosphocholine]
[2]
  Solubilization of BmrA (found in supernatant): complete
[1]; FIG. 11
  ATPase activity of BmrA after reconstitution in liposomes: recovered
  Loss of ATPase activity of BmrA once solubilized: 99%
[1]
  ATPase activity of BmrA with solubilization: decreases with the solubilization

## COc1c2cccc1Cc1cc(CC(=O)O)cc(c1O)Cc1cc(CC(=O)O)cc(c1O)Cc1cc(CC(=O)O)cc(c1O)C2 [compound 5a, 5,11,17 tris-[(carboxylato)methyl]25-mono-methyloxy 26,27,28 tris-hydroxycalix[4]arene]
[2]
  Solubilization of BmrA (found in supernatant): No solubilization
[3]; pH 2
  Apparent diameter (nm): 950 nm
[3]; pH 4
  Apparent diameter (nm): 340 nm
[3]; pH 8
  Apparent diameter (nm): 270 nm
[4]
  CMC: >1.5 mM

## CCCCOc1c2cccc1Cc1cc(CC(=O)O)cc(c1O)Cc1cc(CC(=O)O)cc(c1O)Cc1cc(CC(=O)O)cc(c1O)C2 [compound 5b, 5,11,17 tris-[(carboxylato)methyl]25-mono-butyloxy 26,27,28 tris-hydroxycalix[4]arene]
[2]
  Solubilization of BmrA (found in supernatant): increases progressively
[3]; pH 2
  Apparent diameter (nm): 500 nm
[3]; pH 6
  Apparent diameter (nm): 145 nm

## CCCCCCOc1c2cccc1Cc1cc(CC(=O)O)cc(c1O)Cc1cc(CC(=O)O)cc(c1O)Cc1cc(CC(=O)O)cc(c1O)C2 [compound 5c]
[2]
  Solubilization of BmrA (found in supernatant): more pronounced
[3]; pH 2
  Apparent diameter (nm): 850 nm
[3]; pH 6
  Apparent diameter (nm): 400 nm

## CCCCCCCCCCCCOc1c2cccc1Cc1cc(CC(=O)O)cc(c1O)Cc1cc(CC(=O)O)cc(c1O)Cc1cc(CC(=O)O)cc(c1O)C2 [compound 5d, 5,11,17 tris-[(carboxylato)methyl]25-mono-dodecyl 26,27,28 tris-hydroxycalix[4]arene]
[2]; 1 mg/ml
  Solubilization of BmrA: rather effectively
[2]; at CMC of 0.15 mM (0.1 g/L)
  Solubilization of BmrA: no solubilization
[3]; pH 2
  Apparent diameter (nm): 880 nm
[3]; pH 6
  Apparent diameter (nm): 190 nm
[5]; 10^−2 M, pH 8.0, FIG. 3
  Surface tension plateau relative to initial surface tension: half the initial surface tension
[5]; as a function of concentration, FIG. 2
  Surfactant properties (ability to decrease the surface tension of water): surfactant properties close to those of DDM
[1]
  Effect on ATPase activity of BmrA: does not lead to inactivation
[4]
  CMC: ~0.15 mM
  Critical Micellar Concentration (CMC): 0.15 mM

## calix[4]arene-O-heptyloxy [C4C7]
[2]; 1 mg/ml
  Solubilization of BmrA: rather effectively
[6]; alanine, phenylalanine, leucine
  Effect of amino acid on surface tension: amplified
[6]; glutamic acid or asparagine
  Effect of amino acid on surface tension: No effect
[6]; glycine
  Effect of amino acid on surface tension: moderate effect
[6]; positively charged amino acids histidine, lysine, arginine, listed as n=7
  Effect of amino acid on surface tension: very pronounced
[6]; positively charged amino acids histidine, lysine, arginine, listed as p(COOH)3—Ar4-o(C7H15)
  Effect of amino acid on surface tension: easily increased
[1]
  Effect on ATPase activity of BmrA: does not lead to inactivation
[1]; C4C3 and C4C7 used successively, FIG. 11
  ATPase activity of BmrA preserved: about 50%
[1]; extracted with C4C7, gel filtration in the presence of FC12, fraction a FIG. 12E
  ATPase activity of BmrA fraction after gel filtration: recovered active
[1]; extracted with C4C7, gel filtration, then liposomes, fraction b FIG. 12E
  ATPase activity of BmrA fraction reconstituted in liposomes: elevated ATPase activity was recovered
[4]
  CMC: ~1.5 mM
  Critical Micellar Concentration (CMC): about 1.5 mM
